Where two headings read alike, the source gives them in different places.
Experiments:
Format in all cases: biochemical
PTEN [1] = target: T1, PTEN (Homo sapiens, UniProt P60484); experiment: PTEN Inhibition Assay: General Screening
PTEN [2] = target: T1, PTEN; experiment: PTEN Inhibition Assay: IC50 Determinations
PTP1B = target: T2, PTP1B (Homo sapiens, UniProt P18031); experiment: PTP1B Inhibition Assay: IC50 Determinations
T2 sequence (P18031 1-435): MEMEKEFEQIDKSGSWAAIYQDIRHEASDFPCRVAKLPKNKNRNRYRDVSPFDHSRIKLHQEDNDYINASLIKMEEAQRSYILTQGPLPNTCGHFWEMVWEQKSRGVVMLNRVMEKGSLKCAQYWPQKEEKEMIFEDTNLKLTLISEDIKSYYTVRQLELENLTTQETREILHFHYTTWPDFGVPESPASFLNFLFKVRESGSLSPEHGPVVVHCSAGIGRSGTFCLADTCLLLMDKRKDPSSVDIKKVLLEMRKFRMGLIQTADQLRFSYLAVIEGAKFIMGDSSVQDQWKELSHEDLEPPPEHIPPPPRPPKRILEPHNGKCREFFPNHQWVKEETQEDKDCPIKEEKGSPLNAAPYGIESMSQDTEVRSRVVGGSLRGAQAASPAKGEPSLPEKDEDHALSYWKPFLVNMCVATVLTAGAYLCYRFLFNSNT

[3] = read-out: % Inhibition @ 250 uM
[4] = 250 uM, Table 27 isatins, read-out: % Inhibition @250 uM

T1 sequence (P60484 whole entry, species assumed): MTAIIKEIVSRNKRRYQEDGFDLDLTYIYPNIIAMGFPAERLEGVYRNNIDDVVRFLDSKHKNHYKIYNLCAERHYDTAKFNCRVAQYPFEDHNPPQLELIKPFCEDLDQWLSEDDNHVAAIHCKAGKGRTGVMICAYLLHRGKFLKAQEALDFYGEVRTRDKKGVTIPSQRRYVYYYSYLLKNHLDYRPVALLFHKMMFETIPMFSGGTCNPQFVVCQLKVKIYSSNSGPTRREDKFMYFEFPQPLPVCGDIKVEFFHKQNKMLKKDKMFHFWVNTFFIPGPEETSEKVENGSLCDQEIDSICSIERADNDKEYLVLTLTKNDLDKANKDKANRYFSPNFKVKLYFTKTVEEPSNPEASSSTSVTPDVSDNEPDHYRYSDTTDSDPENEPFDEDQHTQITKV

| IC50 (PTEN [2]; Table 29, read-out: PTEN IC50) [µM] | IC50 (PTP1B; Table 29, read-out: PTP1B IC50) [µM] | inhibition at 250 µM (PTEN [1]; [4]) [%] | Structure (SMILES) | inhibition at 250 µM (PTEN [1]; [3]) [%] | IC50 (PTEN [2]) [µM] | IC50 (PTP1B) [µM] |
| --- | --- | --- | --- | --- | --- | --- |
|  |  |  | O=C1C(=O)c2cc(NCc3ccccc3)ccc2-c2ccccc21 [SF1800-000] | 98 | 0.862 | < 10 |
|  |  |  | Cc1cc(C)cc(S(=O)(=O)Nc2ccc3c(c2)C(=O)C(=O)c2ccccc2-3)c1 [SF1801-000] | 95.3 | 1.01 | < 10 |
|  |  |  | O=C(O)CCC(=O)Nc1ccc2c(c1)C(=O)C(=O)c1ccccc1-2 [SF1804-000] | 98.6 | 54.7 | 1 to 10 |
|  |  |  | O=C(O)C(=O)Nc1ccc2c(c1)C(=O)C(=O)c1ccccc1-2 [SF1806-000] | 98.1 | 12.1 | 1 to 10 |
| 80.7 | 10 to 100 | 95 | O=C1Nc2ccc(Cl)cc2C1=O [SF1816-000] |  |  |  |
| 31.7 | < 10 | 97.8 | O=C1Nc2ccc(Br)cc2C1O (stereo not drawn) [SF1818-000] |  |  |  |
| 33.6 | < 10 | 96 | O=C1Nc2ccc(I)cc2C1=O [SF1819-000] |  |  |  |
| 61.9 | 10 to 100 | 94.6 | O=C1Nc2ccc(F)cc2C1=O [SF1820-000] |  |  |  |

| Structure (SMILES) | IC50 (PTEN [2]; Table 29, read-out: PTEN IC50) [µM] | IC50 (PTP1B; Table 29, read-out: PTP1B IC50) [µM] | inhibition at 250 µM (PTEN [1]; [4]) [%] | inhibition at 250 µM (PTEN [1]; [3]) [%] | IC50 (PTEN [2]) [µM] | IC50 (PTP1B) [µM] |
| --- | --- | --- | --- | --- | --- | --- |
| CC(C)(C)c1ccc(C(=O)Nc2ccc3c(c2)C(=O)C(=O)c2ccccc2-3)cc1 [SF1803-000] | 14.6 | < 1 |  | 83 |  |  |
| O=C1Nc2ccc(Br)cc2C1=O [SF1814-000] |  |  | 97.6 |  | 44.9 | 10 to 100 |
